# Source: paper PMC10050424, “Structural basis of the substrate recognition and inhibition mechanism of Plasmodium falciparum nucleoside transporter PfENT1” (Nature Communications, 2023)
# “And” between values parts separate entries of the source, which are not always exact repeats. Equal entries are not always repeated. Where two headings read alike, the source gives them in different places.
# What was measured:
# PfENT1WT = target: T1, PfENT1WT (Plasmodium falciparum, UniProt Q8IDM6); test: biochemical; type: binding
# T1 construct: 10xHis (N); made in house; host or cells: Sf9 insect cells (baculovirus)
# T1 sequence (Q8IDM6 whole entry): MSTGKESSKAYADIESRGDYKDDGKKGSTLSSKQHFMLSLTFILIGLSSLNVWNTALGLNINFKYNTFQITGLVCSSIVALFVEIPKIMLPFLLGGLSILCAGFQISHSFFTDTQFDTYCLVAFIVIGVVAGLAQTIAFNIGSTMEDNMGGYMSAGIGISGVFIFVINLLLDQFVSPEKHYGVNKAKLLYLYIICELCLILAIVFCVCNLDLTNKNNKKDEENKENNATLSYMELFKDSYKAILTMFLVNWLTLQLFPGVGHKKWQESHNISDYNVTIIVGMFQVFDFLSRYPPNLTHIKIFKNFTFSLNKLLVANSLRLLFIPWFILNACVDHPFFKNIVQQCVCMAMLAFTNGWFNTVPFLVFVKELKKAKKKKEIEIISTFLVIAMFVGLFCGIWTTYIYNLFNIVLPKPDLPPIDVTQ
# Procedure: (§1) For the in vitro binding assay, Sf9 cells were solubilized in lysis buffer containing 2% (w/v) n-dodecyl-β-D-maltopyranoside (DDM, Anatrace) and protease inhibitor cocktail (0.8 μM aprotinin, 2 μM pepstatin, and 5 μg/ml leupeptin) at 4 °C for 2 h. The soluble supernatant was collected via centrifugation and incubated with Ni-NTA resin (QIAGEN) at 4 °C for 1 h. The resin was washed and eluted using lysis buffer containing 0.05% (w/v) DDM and 30 mM/300 mM imidazole. The protein was further purified by size-exclusion chromatography (Superdex 200 Increase 10/300; GE Healthcare) in buffer containing 25 mM MES (pH 6.0), 150 mM NaCl, and 0.05% (w/v) DDM. The peak fractions were pooled and concentrated to 10~50 μM for the nucleoside-binding assay.
# (§2) The binding affinity between wild-type and mutant PfENT1 with nucleosides and GSK4 was measured using a Micro-Cal ITC200 (Malvern). All proteins were prepared in 25 mM MES (pH 6.0), 150 mM NaCl, and 0.05% (w/v) DDM. Nucleosides (5~10 mM) and GSK4 (100-200 μM) dissolved in the same buffer were titrated against 20–50 μM PfENT1 proteins at 25 °C. PEAQ-ITC analysis software (MicroCal) was employed to analyze the data. All titrations were repeated three times.
# PfENT1 = target: T2, PfENT1 (Plasmodium falciparum, UniProt Q8IDM6); test: cell-based; type: cell-based; settings: for uptake of inosine: time course, PfENT1 knock-in yeast
# T2 construct: expressed in transfected cells; host or cells: S. cerevisiae BY4741, FUI1 deleted, PfENT1 knock-in under the TEF1 promoter
# T2 sequence (Q8IDM6 whole entry): as above
# Procedure: The S. cerevisiae strain (ATCC, #201388) BY4741 (MATa his3Δ1 leu2Δ0 met15Δ0 ura3Δ0) was used as the starting yeast strain. Yeast strains were cultured in YPD medium (20 g/L peptone, 10 g/L yeast extract, and 20 g/L dextrose). The antibiotic G418 was supplemented at a concentration of 250 μg/mL to select strains carrying the KanMX marker. E. coli DH5α was used for subcloning.
# (§3) Codon-optimized PfENT1 (for expression in yeast) was synthesized by Sangon Biotech. The carboxyl terminus of PfENT1 was HA-tagged through PCR. The TEF1p promoter and PGK1t terminator were amplified from BY4741 genomic DNA. Overlap PCR was applied to generate the gene overexpression cassette of PfENT1 (TEF1p promoter-PfENT1-PGK1t terminator). The two 600-bp homologous arms corresponding to the upstream and downstream regions of the FUI1 gene were amplified from BY4741 genomic DNA. The gene cassette of the ‘TEF1p promoter-PfENT1-PGK1t terminator’ together with the two homologous arms was cloned into the PUC19 plasmid through Gibson assembly, generating the final plasmid PUC19: PfENT1. PfENT1 mutations were generated using point mutation and verified by Sanger sequencing. The spacer targeting the FUI1 gene (5ʹ-[…]-3ʹ) was cloned into the pCas-BsaI plasmid to generate the pCas-FUI1 plasmid as described previously.
# To obtain fui1Δ and PfENT1 (or its mutations) overexpression in the S. cerevisiae strain, 1 μg pCas-FUI1 plasmid and 15 μg PUC19:PfENT1 were transformed into yeast using the LiAc/ssDNA/PEG method. Then, the strains were plated on a YPD plate supplemented with G418. Clones were screened using PCR and finally verified through Sanger sequencing.
# Cells were grown overnight in YPD medium to mid-log phase and harvested by centrifugation at 3000 × g for 5 min. Cells were washed three times in 2% glucose. The yeast pellets were resuspended in uptake assay buffer (25 mM Tris-HCl 8.0,150 mM NaCl, 2% glucose) to a final concentration of 2 × 10^8 cells mL^–1. The uptake assay was initiated by combining 100 μL of prewarmed (30 °C) cells and 100 μL uptake assay buffer mixture: 25 mM Tris-HCl 8.0, 150 mM NaCl, 2% glucose, 200 nM [^3H] Inosine ([8-^3H] inosine; 20 Ci mmol^–1, American Radiolabeled Chemicals). Cells were removed onto a membrane filter at the appropriate times to generate the time course. After washing by vacuum filtration with 2 ml ice-cold 2% glucose, the radioactivity retained on the filter was incubated with 1 mL of ULTIMA GOLD scintillation fluid (Perkin Elmer, 77-15311). Counts were measured using a liquid scintillation analyzer (Perkin Elmer, Tri-Carb 5110TR).
# For competition assays, the indicated nucleosides and nucleobase were added into the external uptake assay buffer (25 mM Tris-HCl 8.0, 150 mM NaCl, and 2% glucose) to a final concentration of 5 mM, and the transport reaction was stopped at 30 min. The reading of the competition assays was normalized against the one without a competitor, which had the uptake of radiolabeled inosine set as 100%. All uptake assays were performed at 30 °C and repeated three times. Error bars represent the s.d. The final result was analyzed in the GraphPad Prism 8 software ([…]).
# PfENT1 Q135A = target: T3, PfENT1 Q135A (Plasmodium falciparum, UniProt Q8IDM6, Q135A); test: Inosine uptake assay, yeast expressing PfENT1 Q135A; type: cell-based; settings: Fig. 3d, construct Q135A
# T3 construct: expressed in transfected cells; host or cells: S. cerevisiae BY4741, FUI1 deleted, PfENT1 mutant knock-in under the TEF1 promoter
# T3 sequence (Q8IDM6 whole entry Q135A): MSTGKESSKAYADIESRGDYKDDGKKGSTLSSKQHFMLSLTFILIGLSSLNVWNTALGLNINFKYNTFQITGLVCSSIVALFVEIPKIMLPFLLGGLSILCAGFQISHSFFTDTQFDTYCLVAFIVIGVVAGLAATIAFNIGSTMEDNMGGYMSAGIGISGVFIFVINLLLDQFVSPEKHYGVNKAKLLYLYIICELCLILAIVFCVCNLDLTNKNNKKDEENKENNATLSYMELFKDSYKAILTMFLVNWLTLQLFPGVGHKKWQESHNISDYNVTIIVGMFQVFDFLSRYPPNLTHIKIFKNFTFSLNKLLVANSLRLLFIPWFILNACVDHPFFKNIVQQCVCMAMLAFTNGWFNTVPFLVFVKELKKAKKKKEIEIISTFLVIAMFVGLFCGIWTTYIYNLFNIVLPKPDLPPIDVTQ
# Text: as §3, with “previously. […]” for “previously.”
# Cells were grown overnight in YPD medium to mid-log phase and harvested by centrifugation at 3000 × g for 5 min. […] After washing by vacuum filtration with 2 ml ice-cold 2% glucose, the radioactivity retained on the filter was incubated with 1 mL of ULTIMA GOLD scintillation fluid (Perkin Elmer, 77-15311). Counts were measured using a liquid scintillation analyzer (Perkin Elmer, Tri-Carb 5110TR). […]
# PfENT1Y190A = target: T4, PfENT1Y190A (Plasmodium falciparum, UniProt Q8IDM6, Y190A); test: ITC binding to PfENT1Y190A; settings: compared with wild type
# T4 construct: 10xHis (N); made in house; host or cells: Sf9 insect cells (baculovirus)
# T4 sequence (Q8IDM6 1-422 Y190A): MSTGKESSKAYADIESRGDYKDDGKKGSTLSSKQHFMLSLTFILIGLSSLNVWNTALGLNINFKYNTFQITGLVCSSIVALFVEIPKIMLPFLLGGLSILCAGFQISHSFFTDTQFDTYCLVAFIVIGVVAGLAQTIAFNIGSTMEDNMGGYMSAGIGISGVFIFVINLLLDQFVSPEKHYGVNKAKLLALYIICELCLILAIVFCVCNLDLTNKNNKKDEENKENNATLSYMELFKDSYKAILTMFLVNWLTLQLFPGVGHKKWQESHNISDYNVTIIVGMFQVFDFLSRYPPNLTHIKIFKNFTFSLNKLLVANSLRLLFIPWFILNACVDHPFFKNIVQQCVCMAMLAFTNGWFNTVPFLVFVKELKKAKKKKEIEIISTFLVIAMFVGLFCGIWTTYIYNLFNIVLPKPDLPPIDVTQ
# Procedure: as §1, §2
compound,measurement,setting,value
"OC[C@H]1O[C@@H](n2cnc3c(O)ncnc32)[C@H](O)[C@@H]1O [Inosine, inosine]",Kd,"PfENT1WT; Kd, Mean and Mean ± SD, source data Figure 1a",64.7 µM
same,Kd,"PfENT1WT; Kd, N=3 (individual experiments), source data Figure 1a",52.3 µM and 64.2 µM and 77.7 µM
same,Kd,"PfENT1WT; binding affinity (Kd), ITC, 25 °C, pH 6.0, mean ± SD (n = 3), Fig. 1a and text",64.7 ± 12.7 µM
same,Kd,"PfENT1WT; read-out: Kd, Mean and Mean ± SD, source data Figure 1a",64.7 ± 12.7 µM
same,remaining activity at 5000 µM,"PfENT1; 0.5 h, read-out: Uptake of [3H]-inosine (Percentage of PfENT1 WT), competition by nonradioactive nucleoside/nucleobase 5 mM, 30 min, 30 °C, uptake without competitor set as 100%, Fig. 1c",11%
same,Uptake of [3H]-inosine (Percentage of PfENT1 WT),"PfENT1; competition by nonradioactive nucleoside/nucleobase 5 mM, 30 min, 30 °C, uptake without competitor set as 100%, Fig. 1c",abolished
same,uptake of inosine,"PfENT1; time 1 (min), 3 independent experiments",0.8242 fmol per million cells and 1.048 fmol per million cells and 1.269 fmol per million cells
same,uptake of inosine,PfENT1; time 5 (min),1.492 fmol per million cells and 1.522 fmol per million cells and 1.615 fmol per million cells
same,uptake of inosine,PfENT1; time 10 (min),2.864 fmol per million cells and 2.823 fmol per million cells and 2.628 fmol per million cells
same,uptake of inosine,PfENT1; time 20 (min),4.048 fmol per million cells and 4.1747 fmol per million cells and 4.441 fmol per million cells
same,uptake of inosine,PfENT1; time 30 (min),5.946 fmol per million cells and 6.16 fmol per million cells and 6.198 fmol per million cells
same,uptake of inosine,PfENT1; time 45 (min),10.3307 fmol per million cells and 9.87 fmol per million cells and 9.474 fmol per million cells
same,uptake of inosine,PfENT1; time 60 (min),11.051 fmol per million cells and 11.1951 fmol per million cells and 11.2042 fmol per million cells
same,Uptake of [3H]-inosine (Percentage of PfENT1 WT),PfENT1 Q135A,abolished the transport activity
same,inosine-binding affinity,PfENT1Y190A,similar
